According to US20070122395A1, “Genetic and pharmacological regulation of antidepressant-sensitive biogenic amine transporters through PKG/p38 map kinase” (Vanderbilt University, priority 2005, published 2007):

Assays:
[1] = target: T1, native SERT in RN46A cells (Rattus norvegicus, UniProt P31652); assay: [3H]5-HT transport assay in RN46A cells; assay type: cell-based; conditions: RN46A, 10 min treatment
T1 construct: derived from rat E13 raphenucleus, that expresses native SERT; endogenous in cells; host or cells: RN46A cells

[2] = target: T2, hSERT (Homo sapiens, UniProt P31645); assay: [125I]RTI-55 binding to intact transfected HeLa cells (surface and total SERT); assay type: cell-based
T2 construct: The full-length cDNA encoding hSERT in the mammalian expression vector pcDNA3.1; expressed in transfected cells; host or cells: HeLa

[3] = system: hSERT; assay: in situ SERT phosphorylation in [32P]-prelabeled transfected HeLa cells; assay type: cell-based, human; conditions: 8BrcGMP 100 μM, 60 min
[4] = system: five hSERT variants that failed to elicit uptake increases; assay: [125I]RTI-55 surface binding to intact transfected HeLa cells, non-responsive variants; assay type: cell-based, human; conditions: five non-responsive variants
[5] = system: hSERT variants Thr4Ala, Gly56Ala, Glu215Lys, Lys605Asn, Pro621Ser; assay: 5-HT transport regulation in transfected HeLa cells, non-responsive variants; assay type: cell-based, human
Protocol: (§1) Transfection and Transport Studies. HeLa cells, maintained at 37° C. in a 5% CO2 humidified incubator, were grown in complete medium (Dulbecco's Modified Eagle's Medium (DMEM, Invitrogen), 10% fetal bovine serum, 2 mM L-glutamine, 100 units/ml penicillin, and 100 μg/ml streptomycin).
(§2) Transport, Binding, Biotinylation and Phosphorylation Studies. […] To establish levels and biosynthetic progression of hSERT protein produced from mutant cDNAs, HeLa cells were plated in 6-well dishes at 500,000 cells per well and transfected 12 h later. Twenty four hours after transfection, whole cell detergent extracts were blotted for hSERT (mAb Technologies, Inc., 1:1000) using enhanced chemiluminescence (ECL, Amersham) detection.

[6] = target: T2, hSERT; assay: [3H]5-HT transport (SERT uptake) assay in transfected HeLa cells; assay type: cell-based
Protocol: as §1, §2

[7] = system: hSERT variants Leu255Met, Ser293Phe, Pro339Leu, Leu362Met, Ile425Val; assay: 5-HT transport regulation in transfected HeLa cells, responsive variants; assay type: cell-based, human
Protocol: as §1, §2

[8] = system: hSERT Gly56Ala; assay: in situ SERT phosphorylation in [32P]-prelabeled transfected HeLa cells; assay type: cell-based, human
[9] = system: Gly56Ala heterozygous lymphocytes; assay: 5-HT uptake in genotyped lymphocyte lines; assay type: cell-based, human; conditions: Gly56Ala heterozygous cells
Description: (§3) Genotyping and Lymphocyte Studies. Lymphocyte lines were derived from autistic pedigrees recruited by Susan E. Folstein (Johns Hopkins Univ), from the Autism Genetics Resource Exchange (AGRE) collection (www.agre.org/), and from the NIMH Human Genetics Initiative Repository (www.nimhgenetics.org/) at Rutgers University. DNA from lymphoblastoid cell lines was genotyped via TaqMan-based allelic discrimination, using an Applied Biosystems (Foster City, Calif.) Assay-by-Design and independently confirmed by PCR and direct sequence analysis. […] Lymphocyte were pelleted at 1500 rpm, 5 min and washed with KRH assay buffer. A total of 1×10^6 cells in triplicate were pre-warmed (37° C.) in a shaking water bath (10 min) in 12×75 polypropylene tubes in KRH buffer containing 100 μM pargyline and 100 μM ascorbic acid+/−modifiers.

[10] = system: Ala56 homozygous lymphocyte lines; assay: 5-HT uptake in genotyped lymphocyte lines; assay type: cell-based, human
Description: as §3

[11] = system: lymphocytes homozygous for the Gly variant (hSERT Gly56); assay: 5-HT uptake in genotyped lymphocyte lines; assay type: cell-based, human; conditions: Gly56 homozygous lymphocytes
Description: as §3

[12] = system: hSERT variants that responded with uptake increases; assay: [125I]RTI-55 surface binding to intact transfected HeLa cells, responsive variants; assay type: cell-based, human
[13] = system: hDAT; assay: monoamine uptake assay in transfected CHO cells; assay type: cell-based, human; conditions: 10-min anisomycin
Protocol: (§4) Cell Culture and Transfection. […] Cells were cultured for 24 h after transfection. The transfection mixture was removed just prior to assay.

[14] = system: p38 MAPK; assay type: cell-based, rat
Protocol: Assays of p38 MAPK Activation. […] Medium was removed by aspiration, and cells were washed once with KRH buffer and then incubated in triplicate at 37° C. in KRH buffer with or without p38 MAPK activators for 5-10 min. Assay buffer was removed, and cells were immediately fixed with fresh 4% formaldehyde (Sigma) in PBS for 20 min at room temperature and washed four times with 1×PBS containing 0.1% Triton X-100 (Sigma) (5 min per wash) prior to 1 h of blocking with Odyssey blocking buffer (Li-Cor Biosciences, Lincoln, Nebr.). RBL-2H3 cells were subsequently probed with dual phosphorylated (Thr(P) and Tyr(P)) p38 MAPK polyclonal antibody (Cell Signaling; 1:400) in Odyssey blocking buffer with gentle mixing for 2 h at room temperature. Cells were then washed four times with 1×PBS containing 0.1% Tween 20 (Sigma) for 5 min. Bound antibody was detected with fluorescence-labeled secondary antibody-Alexa Fluor® 680 (avoiding exposure to light; 1:200 in Odyssey Blocking Buffer, Molecular Probes, Inc., Eugene, Oreg.) for 1 h. After four washes with 1×PBS, 0.1% Tween 20, the plate was scanned, and the captured image of the signal was processed and quantified with the Odyssey™ Infrared Imaging System (Li-Cor Biosciences). For UV radiation to activate p38 MAPK, plates seeded with cells were placed in a UV source (UV Stratalinker 1800, Stratagene, La Jolla, Calif.) that was preset to deliver 4×10^4 μJ/cm^2 at room temperature.

[15] = system: mSERT; assay: monoamine uptake assay in transfected CHO cells; assay type: cell-based, mouse; conditions: 10-min anisomycin
Protocol: as §4

[16] = system: human NET; assay: monoamine uptake assay in transfected CHO cells; assay type: cell-based; conditions: CHO cells, 10-min anisomycin
Protocol: Cell Culture and Transfection. […] CHO cells (ATCC, Manassas, Va.) were maintained at 37° C. in Dulbecco's MEM containing 10% fetal bovine serum, 1% L-Glu, 100 IU/ml penicillin, and 100 μg/ml streptomycin. For comparison of the response of monoamine transporters to p38 MAPK activation, CHO cells were transfected with cDNAs for hSERT, hDAT, or hNET (100 ng/well for a 24-well plate). Transfections of CHO cells were performed using TransIT-LT1 Transfection Reagent (Mirus, Madison, Wis.) according to the manufacturer's protocol (0.3 μl/well). hSERT, hDAT, or hNET cDNAs were preincubated with the reagent at ambient temperature for 30 min before being added to plated CHO cells. Cells were cultured for 24 h after transfection. The transfection mixture was removed just prior to assay.
CHO cells were plated at 20,000 cells/well 16-24 h before transfection, and the uptake assay was performed 24 h following the transfection. […] Medium was removed by aspiration, and cells were washed once with Krebs-Ringer HEPES (KRH) buffer containing 130 mM NaCl, 1.3 mM KCl, 2.2 mM CaCl2, 1.2 mM MgSO4, 1.2 mM KH2PO4, 1.8 g/liter glucose, 10 mM HEPES, pH 7.4. […] Cells were solubilized with 0.5 ml of Microscint 20 (PerkinElmer Life Sciences), and tritium-labeled monoamine accumulation was quantitated using a TopCount plate scintillation counter (PerkinElmer Life Sciences).

T2 sequence (P31645 whole entry): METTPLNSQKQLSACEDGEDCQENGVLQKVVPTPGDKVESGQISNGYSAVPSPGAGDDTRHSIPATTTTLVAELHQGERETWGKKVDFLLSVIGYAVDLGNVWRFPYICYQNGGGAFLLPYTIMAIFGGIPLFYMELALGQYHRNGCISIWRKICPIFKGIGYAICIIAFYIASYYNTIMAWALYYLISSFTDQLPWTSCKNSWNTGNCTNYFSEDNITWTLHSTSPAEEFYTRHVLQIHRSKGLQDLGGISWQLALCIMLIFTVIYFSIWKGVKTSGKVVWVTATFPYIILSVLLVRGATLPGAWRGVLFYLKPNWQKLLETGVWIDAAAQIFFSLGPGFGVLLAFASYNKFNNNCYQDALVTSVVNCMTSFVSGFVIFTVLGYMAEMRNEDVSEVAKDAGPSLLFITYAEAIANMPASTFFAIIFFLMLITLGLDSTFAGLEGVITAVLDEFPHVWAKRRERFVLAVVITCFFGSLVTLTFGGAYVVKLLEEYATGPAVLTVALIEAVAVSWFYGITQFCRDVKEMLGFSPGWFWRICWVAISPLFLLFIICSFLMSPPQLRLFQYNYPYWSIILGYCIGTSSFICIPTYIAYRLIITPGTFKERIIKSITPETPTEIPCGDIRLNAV
T1 sequence (P31652 whole entry): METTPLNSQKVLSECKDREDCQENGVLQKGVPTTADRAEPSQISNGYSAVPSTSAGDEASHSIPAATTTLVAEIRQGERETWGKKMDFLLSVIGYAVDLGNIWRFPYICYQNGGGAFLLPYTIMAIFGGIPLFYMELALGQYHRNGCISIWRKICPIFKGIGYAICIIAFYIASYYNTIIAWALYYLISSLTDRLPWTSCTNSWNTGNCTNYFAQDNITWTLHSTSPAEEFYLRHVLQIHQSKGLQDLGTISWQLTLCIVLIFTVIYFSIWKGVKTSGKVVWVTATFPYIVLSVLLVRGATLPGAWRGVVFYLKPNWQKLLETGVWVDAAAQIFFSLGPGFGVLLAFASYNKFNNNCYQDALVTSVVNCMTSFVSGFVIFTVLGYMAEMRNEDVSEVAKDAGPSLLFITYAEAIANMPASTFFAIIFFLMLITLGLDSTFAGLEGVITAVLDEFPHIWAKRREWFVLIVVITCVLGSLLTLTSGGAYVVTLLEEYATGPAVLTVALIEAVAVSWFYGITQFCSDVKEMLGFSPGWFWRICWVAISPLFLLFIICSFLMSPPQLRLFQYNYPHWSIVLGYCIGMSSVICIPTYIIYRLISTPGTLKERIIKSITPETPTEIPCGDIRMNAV

Row | Structure (SMILES) | stimulation of 5-HT transport [1] | [125I]RTI-55 surface binding after 8BrcGMP ([2]; 100 μM 8BrcGMP, 5-HT 100 μM as displacer) | total [125I]RTI-55 binding ([2]; paroxetine as displacer, data not shown) | elevation of basal SERT phosphorylation [3] | [125I]RTI-55 surface binding after 8BrcGMP [4] | 8BrcGMP effect on SERT activity [5] | stimulation of 5-HT transport activity (peak increase) [6] | 8BrcGMP effect on SERT activity [7] | SERT phosphorylation response to 8BrcGMP [8] | sensitivity of 5-HT uptake to activator [9] | sensitivity of 5-HT uptake to activator [10] | stimulation of 5-HT transport [11] | [125I]RTI-55 surface binding after 8BrcGMP [12] | anisomycin-modulated DA uptake [13] | increase in phosphorylated p38 MAPK ([14]; 0.5 and 1.0 μm, 5 min) | level of p38 MAPK phosphorylation stimulation ([14]; 5 min treatment) | total p38 MAPK levels ([14]; data not shown) | anisomycin-modulated 5-HT uptake [15] | anisomycin-modulated NE uptake (NET activity) [16]
1 | Nc1nc2c(nc(Br)n2[C@@H]2O[C@@H]3COP(=O)(O)O[C@H]3[C@H]2O)c(=O)[nH]1 [8BrcGMP, 8-bromo-cGMP] | increase in 5-HT transport | Parallel changes in [^125I]RTI-55 surface binding | no effects on total binding | ~80% | reduction in [^125I]RTI-55 surface binding | completely insensitive | 50-70% | dose-dependent, H8-sensitive stimulation of SERT activity comparable to hSERT | could not be further phosphorylated | intermediate sensitivity | lacked sensitivity | robust 8BrcGMP stimulation of 5-HT transport | elevated [^125I]RTI-55 surface binding | – | – | – | – | – | –
2 | COc1ccc(C[C@H]2NC[C@H](O)[C@H]2OC(C)=O)cc1 [anisomycin] | – | – | – | – | – | – | – | – | – | – | – | – | – | small, but significant SB203580-sensitive inhibition of DA uptake | 2-3 fold | comparable to stimulation achieved with 8-bromo-cGMP | No changes | SB203580-sensitive elevation in 5-HT uptake | stimulated to a comparable degree as hSERT
